Data published in PMC9555310, “Novel inhibitors and activity-based probes targeting serine proteases” (Frontiers in Chemistry, 2022).

Assays:
thrombin = molecular target: T1, thrombin (Homo sapiens, UniProt P00734); experiment: Irreversible inhibition kinetics of thrombin (fluorogenic substrate progress curves); format: biochemical; conditions: PBS pH 7.4, 37°C, mean ± SD (n=2)
T1 construct: apparent molecular mass of 31 kDa, corresponding to the heavy (catalytic) chain of the protease; purchased R&D Systems
Method: A range of inhibitor concentrations were prepared from a 10 mM stock solution of the test compounds (NAP533, NAP559, NAP800, NAP830, NAP849, and NAP962) in N, N-dimethylformamide (DMF). Recombinant protease activities were assayed using the cognate fluorogenic substrates as follows: trypsin (Z-Gly-Gly-Arg-NHMec), thrombin (Boc-Val-Pro-Arg-NHMec), plasmin (Boc-Val-Leu-Lys-NHMec), human neutrophil elastase (MeO-Succinyl-Ala-Ala-Pro-Val-NHMec), and chymotrypsin (Succinyl-Ala-Ala-Pro-Phe-NHMec). Each substrate was used at a final concentration of 50 μM, in the appropriate buffer for each protease. All inhibition assays were performed in microtiter plates maintained at 37°C in a final volume of 100 μL. The reaction was initiated by the addition of each protease (approx. 0.01 μg/well) and the rate of substrate hydrolysis was recorded continuously at 37°C, over a 60 min period, by measuring the rate of increase in fluorescence (at λex 360 nm, λem 480 nm) using a FLUOstar Optima microplate reader (BMG Labtech).
The resultant inhibition progress curves obtained for each inhibitor were analyzed by the kinetic models developed by [Tian and Tsou (1982)] and [Walker and Elmore (1984)], for irreversible inhibitors, with curve fitting being achieved using GraFit (Erithacus Software), as described previously ([Ferguson et al., 2016]).
Protease inactivation by each of the compounds under study was evaluated using a fluorogenic enzyme assays. Protease-substrate combinations used as detailed in Section 2. Inhibitors were made up as 10 mM stock solutions in either DMF or DMSO, then diluted with PBS (pH 7.4) to give appropriate working concentrations. A final volume of 100 μL was used per well. […] Increase in fluorescence was recorded using a FLUOstar OPTIMA spectrofluorometer (BMG Labtech), excitation 380 nm and emission 460 nm, for 61 cycles (60 seconds/cycle), with results analysed using MARS Data Analysis Software (BMG Labtech). […]

chymotrypsin = molecular target: T2, chymotrypsin (Bos taurus, UniProt P00766); experiment: Activity-based profiling of chymotrypsin (SDS-PAGE, streptavidin-HRP western blot); format: binding, bovine; conditions: 50 μM ABP, 30 min, 37°C; blocked by heat inactivation
T2 construct: purchased Sigma-Aldrich (supplement); Calbiochem; host or cells: bovine pancreas
Method: Samples of recombinant protease (trypsin, plasmin, thrombin, chymotrypsin, or HNE, as indicated in the relevant figure legends) were treated with each of the newly synthesized compounds at a concentration of 50 μM, for 30 min, at 37°C. A control sample (no ABP) was prepared by treating the recombinant protease with solvent vehicle (DMF) only, used to prepare the stock solution of each ABP. Samples were also pre-treated (±90°C for 30 min) before being incubated with each putative ABP. With trypsin and thrombin, further samples were prepared where Z-Arg^P-(OPh)2 or NAP559, respectively, was added 30 min prior to the addition of the ABP under examination. […]
FIGURE 7 Activity Based Profiling of serine proteases by peptide N-Alkyl glycine carbamates. […] CF Sol (sample 26w) was used at a final concentration of 2.5% (v/v), and the level of NE contained therein was measured using Succinyl-Ala-Ala-Pro-Val-NHMec (50 μM), in the absence (-- o --) and presence (-- o --) of NAP800 (50 μM). […]
Following transfer, the extra protein binding sites on the membrane were blocked by addition of 3% (w/v) BSA in TBST (20 mM Tris, 137 mM NaCl, 1% (v/v) Tween 20, pH 7.6) and agitated gently at room temperature for 30 minutes. The biotin-labelled proteases were then detected by addition of Streptavidin-HRP (Vector Laboratories) in 3% (w/v) BSA in TBST at a concentration of 1:20000, for 1 hour at room temperature. […]

KI (inactivation) (thrombin; Boc-Val-Pro-Arg-NHMec 50µM) [µM]	k 3 (thrombin; first-order rate constant)	k 3 / K i (thrombin; second-order rate constant)	Structure (SMILES)	labelling of chymotrypsin by ABP (western blot) (chymotrypsin)
5.67	0.6 (± 0.068) min^-1	1.1 (± 0.3) x 10^5 M^-1 min^-1	N=C(N)NCCCN(CC(=O)N1CCC[C@H]1C(=O)N(CC(N)=O)Cc1ccccc1)C(=O)ON1C(=O)CCC1=O [NAP559, Succinimidoyl-CO-NArg-D-Pro-NPhe-NH2]	–
–	–	–	O=C(CCCCC1SCC2NC(=O)NC21)NCCCOCCOCCOCCCNC(=O)CNC(=O)CNC(=O)CN(Cc1ccccc1)C(=O)ON1C(=O)CCC1=O (stereo not drawn) [NAP849, Succinimidoyl-CO-NPhe-Gly-Gly-PEG-Biotin]	detection of a strong band corresponding to the molecular weight of chymotrypsin
